Measured values as given in ChEMBL document CHEMBL1155836, “Discovery of imidazole carboxamides as potent and selective CCK1R agonists” (Bioorg Med Chem Lett, 2008).
The source made the active and inactive calls. No cut-off for these calls is given here.

Molecular target: T1, Gastrin/cholecystokinin type B receptor (Homo sapiens) (UniProt P32239)
T1 sequence (whole entry): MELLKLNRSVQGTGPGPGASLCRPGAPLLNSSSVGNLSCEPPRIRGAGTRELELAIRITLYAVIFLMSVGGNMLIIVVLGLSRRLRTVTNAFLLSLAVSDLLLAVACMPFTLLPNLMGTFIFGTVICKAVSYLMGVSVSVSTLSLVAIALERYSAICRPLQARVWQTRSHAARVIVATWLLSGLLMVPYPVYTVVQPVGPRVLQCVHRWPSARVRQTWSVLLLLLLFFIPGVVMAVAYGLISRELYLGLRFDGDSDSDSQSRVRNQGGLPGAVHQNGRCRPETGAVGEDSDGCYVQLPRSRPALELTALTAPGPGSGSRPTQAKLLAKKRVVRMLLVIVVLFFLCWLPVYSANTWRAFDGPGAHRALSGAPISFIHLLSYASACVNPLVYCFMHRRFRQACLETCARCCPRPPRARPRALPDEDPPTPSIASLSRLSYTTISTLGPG
Test: Agonist activity against human CCK2 receptor
Assay type: functional

Activity | Compound
inactive | COc1cccc(-n2cc(C(=O)N3CCN(c4cccc(Cl)c4)CC3)nc2-c2ccc(C)cc2)c1
inactive | COc1cccc(-n2cc(C(=O)N3CCN(c4ccc(Cl)c(Cl)c4)CC3)nc2-c2ccc(C)cc2)c1
inactive | COc1cccc(-n2cc(C(=O)N3CCN(c4ccc5ccccc5c4)CC3)nc2-c2ccc(C)cc2)c1
inactive | COc1cccc(-n2cc(C(=O)N3CCN(c4cnc5ccccc5c4)CC3)nc2-c2ccc(C)cc2)c1
inactive | COc1cccc(-n2cc(C(=O)N3CCN(c4cc(C(=O)O)c5ccccc5c4)CC3)nc2-c2ccc(C)cc2)c1

The next lines start with the molecule.

Compound | Activity
COc1cccc(-n2cc(C(=O)N3CCN(c4cccc5ccccc45)CC3)nc2-c2ccc(C)cc2)c1 | inactive
Cc1ccc(-c2nc(C(=O)N3CCN(c4ccc5ccccc5c4)CC3)cn2-c2ccc3c(c2)OCCO3)cc1 | inactive
COc1cccc(-n2cc(C(=O)N3CCN(c4cc5ccccc5cc4C(=O)O)CC3)nc2-c2ccc(C)cc2)c1 | inactive
COc1cccc(-n2cc(C(=O)N3CCN(c4ccc5ccccc5n4)CC3)nc2-c2ccc(C)cc2)c1 | inactive
CCOc1cccc(-n2cc(C(=O)N3CCN(c4ccc5ccccc5c4)CC3)nc2-c2ccc(C)cc2)c1 | inactive
CCOc1cccc(-n2cc(C(=O)N3CCN(c4ccc5ccccc5c4)CC3)nc2-c2ccc(CC)cc2)c1 | inactive
CCOc1cccc(-n2cc(C(=O)N3CCN(c4ccc5ccccc5c4)CC3)nc2-c2cccc(F)c2)c1 | inactive
CCOc1cccc(-n2cc(C(=O)N3CCN(c4ccc5ccccc5c4)CC3)nc2-c2ccc(Cl)cc2)c1 | inactive
Cc1ccc(-c2nc(C(=O)N3CCN(c4ccc5ccccc5c4)CC3)cn2-c2cccc(OCC(F)(F)F)c2)cc1 | inactive
CCOc1cccc(-n2cc(C(=O)N3CCN(c4ccc5ccccc5c4)CC3)nc2-c2ccc(C)cc2F)c1 | inactive
CCOc1cccc(-n2cc(C(=O)N3CCN(c4ccc5ccccc5c4)CC3)nc2-c2c(F)cccc2F)c1 | inactive

Molecular target: T1, Gastrin/cholecystokinin type B receptor (Homo sapiens)
Test: Agonist activity against human CCK2 receptor assessed as receptor activation at 10000 nM
Assay type: functional

Activity [%] | Compound
< 20 | COc1cccc(-n2cc(C(=O)N3CCN(c4cccc(Cl)c4)CC3)nc2-c2ccc(C)cc2)c1
< 20 | COc1cccc(-n2cc(C(=O)N3CCN(c4ccc(Cl)c(Cl)c4)CC3)nc2-c2ccc(C)cc2)c1
< 21 | COc1cccc(-n2cc(C(=O)N3CCN(c4ccc5ccccc5c4)CC3)nc2-c2ccc(C)cc2)c1
< 20 | COc1cccc(-n2cc(C(=O)N3CCN(c4cnc5ccccc5c4)CC3)nc2-c2ccc(C)cc2)c1
< 20 | COc1cccc(-n2cc(C(=O)N3CCN(c4cc(C(=O)O)c5ccccc5c4)CC3)nc2-c2ccc(C)cc2)c1

Further lines, the molecule ahead of its results:

Compound | Activity [%]
COc1cccc(-n2cc(C(=O)N3CCN(c4cccc5ccccc45)CC3)nc2-c2ccc(C)cc2)c1 | < 20
Cc1ccc(-c2nc(C(=O)N3CCN(c4ccc5ccccc5c4)CC3)cn2-c2ccc3c(c2)OCCO3)cc1 | < 21
COc1cccc(-n2cc(C(=O)N3CCN(c4cc5ccccc5cc4C(=O)O)CC3)nc2-c2ccc(C)cc2)c1 | < 20
COc1cccc(-n2cc(C(=O)N3CCN(c4ccc5ccccc5n4)CC3)nc2-c2ccc(C)cc2)c1 | < 20
CCOc1cccc(-n2cc(C(=O)N3CCN(c4ccc5ccccc5c4)CC3)nc2-c2ccc(C)cc2)c1 | < 12
CCOc1cccc(-n2cc(C(=O)N3CCN(c4ccc5ccccc5c4)CC3)nc2-c2ccc(CC)cc2)c1 | < 12
CCOc1cccc(-n2cc(C(=O)N3CCN(c4ccc5ccccc5c4)CC3)nc2-c2cccc(F)c2)c1 | < 12
CCOc1cccc(-n2cc(C(=O)N3CCN(c4ccc5ccccc5c4)CC3)nc2-c2ccc(Cl)cc2)c1 | < 12
Cc1ccc(-c2nc(C(=O)N3CCN(c4ccc5ccccc5c4)CC3)cn2-c2cccc(OCC(F)(F)F)c2)cc1 | < 21
CCOc1cccc(-n2cc(C(=O)N3CCN(c4ccc5ccccc5c4)CC3)nc2-c2ccc(C)cc2F)c1 | < 12
CCOc1cccc(-n2cc(C(=O)N3CCN(c4ccc5ccccc5c4)CC3)nc2-c2c(F)cccc2F)c1 | < 12

Molecular target: T2, Cholecystokinin receptor type A (Homo sapiens, UniProt P32238)
T2 sequence (P32238 whole entry): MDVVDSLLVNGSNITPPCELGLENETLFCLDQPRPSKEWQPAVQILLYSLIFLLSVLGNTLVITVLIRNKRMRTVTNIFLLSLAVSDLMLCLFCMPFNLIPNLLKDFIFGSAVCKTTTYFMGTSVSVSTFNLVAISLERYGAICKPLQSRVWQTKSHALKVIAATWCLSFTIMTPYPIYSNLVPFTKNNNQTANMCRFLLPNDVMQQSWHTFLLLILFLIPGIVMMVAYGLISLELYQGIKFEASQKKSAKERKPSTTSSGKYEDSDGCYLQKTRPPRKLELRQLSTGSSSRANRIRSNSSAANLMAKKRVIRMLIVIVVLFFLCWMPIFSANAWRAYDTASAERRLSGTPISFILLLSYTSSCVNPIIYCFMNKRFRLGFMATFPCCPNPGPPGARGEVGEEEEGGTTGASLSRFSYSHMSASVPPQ
Test: Agonist activity against human CCK1 receptor
Assay type: functional

EC50 [nM] | Compound
74 | COc1cccc(-n2cc(C(=O)N3CCN(c4cccc(Cl)c4)CC3)nc2-c2ccc(C)cc2)c1
25 | COc1cccc(-n2cc(C(=O)N3CCN(c4ccc(Cl)c(Cl)c4)CC3)nc2-c2ccc(C)cc2)c1
9.6 | COc1cccc(-n2cc(C(=O)N3CCN(c4ccc5ccccc5c4)CC3)nc2-c2ccc(C)cc2)c1
1.1 | COc1cccc(-n2cc(C(=O)N3CCN(c4cnc5ccccc5c4)CC3)nc2-c2ccc(C)cc2)c1
0.078 | COc1cccc(-n2cc(C(=O)N3CCN(c4cc(C(=O)O)c5ccccc5c4)CC3)nc2-c2ccc(C)cc2)c1

Second part, the molecule before the results:

Compound | EC50 [nM]
COc1cccc(-n2cc(C(=O)N3CCN(c4cccc5ccccc45)CC3)nc2-c2ccc(C)cc2)c1 | 5370
Cc1ccc(-c2nc(C(=O)N3CCN(c4ccc5ccccc5c4)CC3)cn2-c2ccc3c(c2)OCCO3)cc1 | 0.99
COc1cccc(-n2cc(C(=O)N3CCN(c4cc5ccccc5cc4C(=O)O)CC3)nc2-c2ccc(C)cc2)c1 | 0.4
COc1cccc(-n2cc(C(=O)N3CCN(c4ccc5ccccc5n4)CC3)nc2-c2ccc(C)cc2)c1 | 43
CCOc1cccc(-n2cc(C(=O)N3CCN(c4ccc5ccccc5c4)CC3)nc2-c2ccc(C)cc2)c1 | 6.6
CCOc1cccc(-n2cc(C(=O)N3CCN(c4ccc5ccccc5c4)CC3)nc2-c2ccc(CC)cc2)c1 | 175
CCOc1cccc(-n2cc(C(=O)N3CCN(c4ccc5ccccc5c4)CC3)nc2-c2cccc(F)c2)c1 | 105
CCOc1cccc(-n2cc(C(=O)N3CCN(c4ccc5ccccc5c4)CC3)nc2-c2ccc(Cl)cc2)c1 | 5.5
Cc1ccc(-c2nc(C(=O)N3CCN(c4ccc5ccccc5c4)CC3)cn2-c2cccc(OCC(F)(F)F)c2)cc1 | 1350
CCOc1cccc(-n2cc(C(=O)N3CCN(c4ccc5ccccc5c4)CC3)nc2-c2ccc(C)cc2F)c1 | 1.9
CCOc1cccc(-n2cc(C(=O)N3CCN(c4ccc5ccccc5c4)CC3)nc2-c2c(F)cccc2F)c1 | 4.4

Molecular target: T3, Cholecystokinin receptor type A (Homo sapiens) (UniProt P32238)
T3 sequence (whole entry): T2 sequence (P32238 whole entry)
Test: Agonist activity against human CCK1 receptor assessed as receptor activation at 10000 nM
Assay type: functional

Activity [%] | Compound
89 | COc1cccc(-n2cc(C(=O)N3CCN(c4cccc(Cl)c4)CC3)nc2-c2ccc(C)cc2)c1
99 | COc1cccc(-n2cc(C(=O)N3CCN(c4ccc(Cl)c(Cl)c4)CC3)nc2-c2ccc(C)cc2)c1
99 | COc1cccc(-n2cc(C(=O)N3CCN(c4ccc5ccccc5c4)CC3)nc2-c2ccc(C)cc2)c1
92 | COc1cccc(-n2cc(C(=O)N3CCN(c4cnc5ccccc5c4)CC3)nc2-c2ccc(C)cc2)c1
85 | COc1cccc(-n2cc(C(=O)N3CCN(c4cc(C(=O)O)c5ccccc5c4)CC3)nc2-c2ccc(C)cc2)c1

Further lines, the molecule ahead of its results:

Compound | Activity [%]
COc1cccc(-n2cc(C(=O)N3CCN(c4cccc5ccccc45)CC3)nc2-c2ccc(C)cc2)c1 | 30
Cc1ccc(-c2nc(C(=O)N3CCN(c4ccc5ccccc5c4)CC3)cn2-c2ccc3c(c2)OCCO3)cc1 | 89
COc1cccc(-n2cc(C(=O)N3CCN(c4cc5ccccc5cc4C(=O)O)CC3)nc2-c2ccc(C)cc2)c1 | 92
COc1cccc(-n2cc(C(=O)N3CCN(c4ccc5ccccc5n4)CC3)nc2-c2ccc(C)cc2)c1 | 89
CCOc1cccc(-n2cc(C(=O)N3CCN(c4ccc5ccccc5c4)CC3)nc2-c2ccc(C)cc2)c1 | 93
CCOc1cccc(-n2cc(C(=O)N3CCN(c4ccc5ccccc5c4)CC3)nc2-c2ccc(CC)cc2)c1 | 83
CCOc1cccc(-n2cc(C(=O)N3CCN(c4ccc5ccccc5c4)CC3)nc2-c2cccc(F)c2)c1 | 106
CCOc1cccc(-n2cc(C(=O)N3CCN(c4ccc5ccccc5c4)CC3)nc2-c2ccc(Cl)cc2)c1 | 119
Cc1ccc(-c2nc(C(=O)N3CCN(c4ccc5ccccc5c4)CC3)cn2-c2cccc(OCC(F)(F)F)c2)cc1 | 95
CCOc1cccc(-n2cc(C(=O)N3CCN(c4ccc5ccccc5c4)CC3)nc2-c2ccc(C)cc2F)c1 | 116
CCOc1cccc(-n2cc(C(=O)N3CCN(c4ccc5ccccc5c4)CC3)nc2-c2c(F)cccc2F)c1 | 109

Molecular target: T2, Cholecystokinin receptor type A
Test: Inhibition of human CCK1 receptor

IC50 [nM] | Compound
14 | COc1cccc(-n2cc(C(=O)N3CCN(c4cccc(Cl)c4)CC3)nc2-c2ccc(C)cc2)c1
8 | COc1cccc(-n2cc(C(=O)N3CCN(c4ccc(Cl)c(Cl)c4)CC3)nc2-c2ccc(C)cc2)c1
2.5 | COc1cccc(-n2cc(C(=O)N3CCN(c4ccc5ccccc5c4)CC3)nc2-c2ccc(C)cc2)c1
1.3 | COc1cccc(-n2cc(C(=O)N3CCN(c4cnc5ccccc5c4)CC3)nc2-c2ccc(C)cc2)c1
0.14 | COc1cccc(-n2cc(C(=O)N3CCN(c4cc(C(=O)O)c5ccccc5c4)CC3)nc2-c2ccc(C)cc2)c1

The next lines start with the molecule.

Compound | IC50 [nM]
COc1cccc(-n2cc(C(=O)N3CCN(c4cccc5ccccc45)CC3)nc2-c2ccc(C)cc2)c1 | 630
Cc1ccc(-c2nc(C(=O)N3CCN(c4ccc5ccccc5c4)CC3)cn2-c2ccc3c(c2)OCCO3)cc1 | 0.42
COc1cccc(-n2cc(C(=O)N3CCN(c4cc5ccccc5cc4C(=O)O)CC3)nc2-c2ccc(C)cc2)c1 | 1.3
COc1cccc(-n2cc(C(=O)N3CCN(c4ccc5ccccc5n4)CC3)nc2-c2ccc(C)cc2)c1 | 16
CCOc1cccc(-n2cc(C(=O)N3CCN(c4ccc5ccccc5c4)CC3)nc2-c2ccc(C)cc2)c1 | 2.3
CCOc1cccc(-n2cc(C(=O)N3CCN(c4ccc5ccccc5c4)CC3)nc2-c2ccc(CC)cc2)c1 | 43
CCOc1cccc(-n2cc(C(=O)N3CCN(c4ccc5ccccc5c4)CC3)nc2-c2cccc(F)c2)c1 | 35
CCOc1cccc(-n2cc(C(=O)N3CCN(c4ccc5ccccc5c4)CC3)nc2-c2ccc(Cl)cc2)c1 | 5.6
Cc1ccc(-c2nc(C(=O)N3CCN(c4ccc5ccccc5c4)CC3)cn2-c2cccc(OCC(F)(F)F)c2)cc1 | 200
CCOc1cccc(-n2cc(C(=O)N3CCN(c4ccc5ccccc5c4)CC3)nc2-c2ccc(C)cc2F)c1 | 0.56
CCOc1cccc(-n2cc(C(=O)N3CCN(c4ccc5ccccc5c4)CC3)nc2-c2c(F)cccc2F)c1 | 1.9
